Experimental data published in patent US20080261970A1, “Sufonamides and Uses Thereof” (ELIXIR PHARMACEUTICALS, INC., priority 2004, published 2008).
No end group written: not given here.

Test system: mice
Test: fast refeed (fast-refeeding) assay
Type: in vivo
Method: In vivo assays. Exemplary in vivo assays include the fast-refeeding assay described in Example 1 and as follows.
Food is removed at 6 pm for an overnight (˜16 hour) fast. Beginning at 10 am on the next morning, mice are administered with either vehicle (e.g., saline+acetic acid, pH=5) or the compound of interest. Mice are then returned to their home cages and pre-weighed food (approximately 90 grams) is immediately returned to the food hoppers in each cage. The weight of the food remaining in the food hoppers is measured at 30 minutes, 1 hour, 2 hours, and 4 hours post compound/vehicle administration. Final body weights are then recorded for the mice.

substance P (RPKPQQFFGLM; ends and bridges not checked; UniProt P20366 58-68, looked up)
feeding activity: alters feeding activity
